In PubChem BioAssay (NCI):
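All cell lines were grown in 96-well plates and treated with compound for 48 hours. GI50 = concentration required for 50% inhibition of growth. TGI denotes the concentration required for complete inhibition of growth.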

Key:
Assay in all cases: NCI tumour cell line growth inhibition, 48 h
786-0 renal = system: 786-0 renal
A498 renal = system: A498 renal
A549 NSCLC = system: A549 NSCLC
ACHN renal = system: ACHN renal
BT-549 breast = system: BT-549 breast
CAKI-1 renal = system: CAKI-1 renal
CCRF-CEM leukemia = system: CCRF-CEM leukemia
COLO 205 colon = system: COLO 205 colon
DU-145 prostate = system: DU-145 prostate
EKVX NSCLC = system: EKVX NSCLC
HCC-2998 colon = system: HCC-2998 colon
HCT-116 colon = system: HCT-116 colon
HCT-15 colon = system: HCT-15 colon
HL-60(TB) leukemia = system: HL-60(TB) leukemia
HOP-62 NSCLC = system: HOP-62 NSCLC
HOP-92 NSCLC = system: HOP-92 NSCLC
HS 578T breast = system: HS 578T breast
HT29 colon = system: HT29 colon
IGROV1 ovarian = system: IGROV1 ovarian
K-562 leukemia = system: K-562 leukemia
KM12 colon = system: KM12 colon
LOX IMVI melanoma = system: LOX IMVI melanoma
M14 melanoma = system: M14 melanoma
MALME-3M melanoma = system: MALME-3M melanoma
MCF7 breast = system: MCF7 breast
MDA-MB-231 breast = system: MDA-MB-231 breast
MDA-MB-435 = system: MDA-MB-435
MOLT-4 leukemia = system: MOLT-4 leukemia
NCI-H226 lung = system: NCI-H226 lung
NCI-H23 lung = system: NCI-H23 lung
NCI-H460 lung = system: NCI-H460 lung
NCI-H522 lung = system: NCI-H522 lung
NCI/ADR-RES ovarian = system: NCI/ADR-RES ovarian
OVCAR-3 ovarian = system: OVCAR-3 ovarian
OVCAR-4 ovarian = system: OVCAR-4 ovarian
OVCAR-5 ovarian = system: OVCAR-5 ovarian
OVCAR-8 ovarian = system: OVCAR-8 ovarian
PC-3 prostate = system: PC-3 prostate
RPMI-8226 leukemia = system: RPMI-8226 leukemia
RXF 393 renal = system: RXF 393 renal
SF-268 CNS = system: SF-268 CNS
SF-295 CNS = system: SF-295 CNS
SF-539 CNS = system: SF-539 CNS
SK-MEL-2 melanoma = system: SK-MEL-2 melanoma
SK-MEL-28 melanoma = system: SK-MEL-28 melanoma
SK-MEL-5 melanoma = system: SK-MEL-5 melanoma
SK-OV-3 ovarian = system: SK-OV-3 ovarian
SN12C renal = system: SN12C renal
SNB-19 CNS = system: SNB-19 CNS
SNB-75 CNS = system: SNB-75 CNS
SR leukemia = system: SR leukemia
SW-620 colon = system: SW-620 colon
T-47D breast = system: T-47D breast
TK-10 renal = system: TK-10 renal
U251 CNS = system: U251 CNS
UACC-257 melanoma = system: UACC-257 melanoma
UACC-62 melanoma = system: UACC-62 melanoma
UO-31 renal = system: UO-31 renal

In the case of `COc1ccc(Nc2ncc(Br)c(NCCCNC(=O)C3CCC3)n2)cc1`, the GI50 (786-0 renal) is reported as 10.1 µM, the TGI (786-0 renal) is reported as 47.1 µM and the GI50 (A498 renal) is reported as 12.3 µM. For the same compound, the TGI (A498 renal) was 27.2 µM, the GI50 (A549 NSCLC) was 14.3 µM and the TGI (A549 NSCLC) was 37.8 µM. The GI50 (ACHN renal) was 13.5 µM, the TGI (ACHN renal) was greater than 100 µM and the GI50 (BT-549 breast) was 3.62 µM. The TGI (BT-549 breast) was 15.9 µM, the GI50 (CAKI-1 renal) was 5.21 µM and the TGI (CAKI-1 renal) was 31.6 µM. For the same compound, the GI50 (CCRF-CEM leukemia) was 4.49 µM, the TGI (CCRF-CEM leukemia) was 98.1 µM and the GI50 (COLO 205 colon) was 10.6 µM. For the same compound, the TGI (COLO 205 colon) was 30.8 µM, the GI50 (DU-145 prostate) was 20.5 µM and the TGI (DU-145 prostate) was greater than 100 µM. The GI50 (EKVX NSCLC) was 20.5 µM, the TGI (EKVX NSCLC) was 83.9 µM and the GI50 (HCC-2998 colon) was 21.7 µM. It also gave a TGI (HCC-2998 colon) of 58.1 µM, a GI50 (HCT-116 colon) of 8.31 µM and a TGI (HCT-116 colon) of 82.3 µM. The GI50 (HCT-15 colon) was 14.7 µM, the TGI (HCT-15 colon) was 62.5 µM and the GI50 (HL-60(TB) leukemia) was 5.59 µM. The TGI (HL-60(TB) leukemia) was 45.8 µM, the GI50 (HOP-62 NSCLC) was 4.77 µM and the TGI (HOP-62 NSCLC) was 44.8 µM. It also gave a GI50 (HOP-92 NSCLC) of 5.58 µM, a TGI (HOP-92 NSCLC) of 39.8 µM and a GI50 (HS 578T breast) of 3.23 µM. For the same compound, the TGI (HS 578T breast) was 9.2 µM, the GI50 (HT29 colon) was 18.7 µM and the TGI (HT29 colon) was 85.4 µM. For the same compound, the GI50 (IGROV1 ovarian) was 14.6 µM, the TGI (IGROV1 ovarian) was 44.5 µM and the GI50 (K-562 leukemia) was 9.27 µM. The TGI (K-562 leukemia) was greater than 100 µM, the GI50 (KM12 colon) was 8.06 µM and the TGI (KM12 colon) was greater than 100 µM. It also gave a GI50 (LOX IMVI melanoma) of 4.06 µM, a TGI (LOX IMVI melanoma) of 18.1 µM and a GI50 (M14 melanoma) of 31.5 µM. It also gave a TGI (M14 melanoma) greater than 100 µM, a GI50 (MALME-3M melanoma) of 24.6 µM and a TGI (MALME-3M melanoma) greater than 100 µM. For the same compound, the GI50 (MCF7 breast) was 16.1 µM, the TGI (MCF7 breast) was 67.5 µM and the GI50 (MDA-MB-231 breast) was 5.06 µM. The TGI (MDA-MB-231 breast) was 60.3 µM, the GI50 (MDA-MB-435) was 36.1 µM and the TGI (MDA-MB-435) was greater than 100 µM. It also gave a GI50 (MOLT-4 leukemia) of 5.92 µM, a TGI (MOLT-4 leukemia) greater than 100 µM and a GI50 (NCI-H226 lung) of 4.8 µM. It also gave a TGI (NCI-H226 lung) of 37.7 µM, a GI50 (NCI-H23 lung) of 16.6 µM and a TGI (NCI-H23 lung) of 62.2 µM. For the same compound, the GI50 (NCI-H460 lung) was 8.34 µM, the TGI (NCI-H460 lung) was 31.5 µM and the GI50 (NCI-H522 lung) was 24 µM. It also gave a TGI (NCI-H522 lung) greater than 100 µM, a GI50 (NCI/ADR-RES ovarian) of 19 µM and a TGI (NCI/ADR-RES ovarian) of 80.5 µM. The GI50 (OVCAR-3 ovarian) was 16.5 µM, the TGI (OVCAR-3 ovarian) was 48.5 µM and the GI50 (OVCAR-4 ovarian) was 11.3 µM. For the same compound, the TGI (OVCAR-4 ovarian) was 56 µM, the GI50 (OVCAR-5 ovarian) was 10.8 µM and the TGI (OVCAR-5 ovarian) was 40.2 µM. The GI50 (OVCAR-8 ovarian) was 21.1 µM, the TGI (OVCAR-8 ovarian) was greater than 100 µM and the GI50 (PC-3 prostate) was 14.5 µM. For the same compound, the TGI (PC-3 prostate) was greater than 100 µM, the GI50 (RPMI-8226 leukemia) was 14 µM and the TGI (RPMI-8226 leukemia) was 42.1 µM. The GI50 (RXF 393 renal) was 2.3 µM, the TGI (RXF 393 renal) was 8.56 µM and the GI50 (SF-268 CNS) was 4.78 µM. For the same compound, the TGI (SF-268 CNS) was 41.6 µM, the GI50 (SF-295 CNS) was 11 µM and the TGI (SF-295 CNS) was 89.4 µM. For the same compound, the GI50 (SF-539 CNS) was 3.69 µM, the TGI (SF-539 CNS) was 18.5 µM and the GI50 (SK-MEL-2 melanoma) was 22.9 µM. It also gave a TGI (SK-MEL-2 melanoma) of 55.7 µM, a GI50 (SK-MEL-28 melanoma) of 33.4 µM and a TGI (SK-MEL-28 melanoma) greater than 100 µM. It also gave a GI50 (SK-MEL-5 melanoma) of 13 µM, a TGI (SK-MEL-5 melanoma) of 35.1 µM and a GI50 (SK-OV-3 ovarian) of 14.1 µM. For the same compound, the TGI (SK-OV-3 ovarian) was 36.6 µM, the GI50 (SN12C renal) was 5.45 µM and the TGI (SN12C renal) was 62.7 µM. It also gave a GI50 (SNB-19 CNS) of 8.95 µM, a TGI (SNB-19 CNS) greater than 100 µM and a GI50 (SNB-75 CNS) of 2.98 µM. The TGI (SNB-75 CNS) was 12.1 µM, the GI50 (SR leukemia) was 4.34 µM and the TGI (SR leukemia) was 40.1 µM. For the same compound, the GI50 (SW-620 colon) was 6.6 µM, the TGI (SW-620 colon) was greater than 100 µM and the GI50 (T-47D breast) was 41.2 µM. It also gave a TGI (T-47D breast) of 98.7 µM, a GI50 (TK-10 renal) of 5.46 µM and a TGI (TK-10 renal) of 38.7 µM. For the same compound, the GI50 (U251 CNS) was 12.4 µM, the TGI (U251 CNS) was greater than 100 µM and the GI50 (UACC-257 melanoma) was 68.9 µM. The TGI (UACC-257 melanoma) was greater than 100 µM, the GI50 (UACC-62 melanoma) was 17.7 µM and the TGI (UACC-62 melanoma) was 36.3 µM. It also gave a GI50 (UO-31 renal) of 2.55 µM and a TGI (UO-31 renal) of 13.5 µM.
